Laboratory results: patent US4068070A, “α-Cyanoamine compounds and a process for producing the same” (Fuji Chemical Industry Co., Ltd., priority 1974, dated 1978)

Columns and labels:
Format in all cases: in vivo, mongrel adult dogs
[1] = system: arterial mean blood pressure; test: Effects on arterial mean blood pressure
Protocol: (§1) All experiments were made on male and female thoractomized mongrel adult dogs weighing about 10 kg. under anesthesia with pentobarbital sodium. Compounds A, D, E and F were suspended in 0.2% CMC solution, Compound B dissolved in hydrochloric acid solution (pH 6), and Compound C and active placebo being dissolved in physiological saline solution. Animals were administered the drug intravenously on brachiuma with either test compound or active placebo.
(§2) Arterial blood pressure was measured by pressure transducer (Nippon Koden MPU-0.5) connected with the cannula inserted from exposed carotid artery into aorta. Aortic blood flow was determined by means of electromagnetic flow meter (Nippon Koden MF-5) mounted at the origin of the aorta. Coronary sinus out flow and coronary sinus oxygen tension were assessed by means of electromagnetic flow meter (Nippon Koden MF-5) and P02 macro electrode (Beokmann Moder 160-C), respectively using Morawitz cannulization technique. Heart rate was measured by cardiotachometer (Nippon Koden RT-2) synchronized with systolic blood pressure of aorta.

aortic blood flow = test: Effects on aortic blood flow
Protocol: as §1, §2

coronary sinus out flow = test: Effects on coronary sinus out flow
Protocol: as §1, §2

[2] = system: coronary sinus oxygen tension; test: Effects on coronary sinus oxygen tension
Protocol: as §1, §2

heart rate = test: Effects on heart rate
Protocol: as §1, §2

CCOC(=O)CN1CCN(C(C#N)c2ccc(OC)c(OC)c2)CC1 (centres unmarked) [Compound B]
Changes (%) of basal values, arterial mean blood pressure ([1]; 0.2 mg/kg i.v., 1 min): +4.8%
Changes (%) of basal values, arterial mean blood pressure ([1]; 0.2 mg/kg i.v., 5 min): +0.4%
Changes (%) of basal values, arterial mean blood pressure ([1]; 0.2 mg/kg i.v., 10 min): +0.1%
Changes (%) of basal values, arterial mean blood pressure ([1]; 0.2 mg/kg i.v., 20 min): -0.1%
Changes (%) of basal values, arterial mean blood pressure ([1]; 0.2 mg/kg i.v., 30 min): 0%
Changes (%) of basal values, arterial mean blood pressure ([1]; 0.2 mg/kg i.v., 40 min): 0%
Changes (%) of basal values, arterial mean blood pressure ([1]; 0.2 mg/kg i.v., imm.): -5.0%
Changes (%) of basal values, arterial mean blood pressure ([1]; 0.6 mg/kg i.v., 1 min): +6.2%
Changes (%) of basal values, arterial mean blood pressure ([1]; 0.6 mg/kg i.v., 5 min): +0.1%
Changes (%) of basal values, arterial mean blood pressure ([1]; 0.6 mg/kg i.v., 10 min): -0.3%
Changes (%) of basal values, arterial mean blood pressure ([1]; 0.6 mg/kg i.v., 20 min): 0%
Changes (%) of basal values, arterial mean blood pressure ([1]; 0.6 mg/kg i.v., 30 min): 0%
Changes (%) of basal values, arterial mean blood pressure ([1]; 0.6 mg/kg i.v., 40 min): 0%
Changes (%) of basal values, arterial mean blood pressure ([1]; 0.6 mg/kg i.v., imm.): -14.4%
Changes (%) of basal values, arterial mean blood pressure ([1]; 3.0 mg/kg i.v., 1 min): +7.0%
Changes (%) of basal values, arterial mean blood pressure ([1]; 3.0 mg/kg i.v., 5 min): +2.5%
Changes (%) of basal values, arterial mean blood pressure ([1]; 3.0 mg/kg i.v., 10 min): +0.4%
Changes (%) of basal values, arterial mean blood pressure ([1]; 3.0 mg/kg i.v., 20 min): -1.0%
Changes (%) of basal values, arterial mean blood pressure ([1]; 3.0 mg/kg i.v., 30 min): -0.5%
Changes (%) of basal values, arterial mean blood pressure ([1]; 3.0 mg/kg i.v., 40 min): 0%
Changes (%) of basal values, arterial mean blood pressure ([1]; 3.0 mg/kg i.v., imm.): -16.2%
Effects on arterial mean blood pressure (in words) ([1]; i.v., anesthetized dogs): transitory hypotensive effect immediately after administration, and thereafter increased blood pressure which was then, from 10 minutes after medication, returned to the level before treatment
Changes (%) of basal values, aortic blood flow (aortic blood flow; 0.2 mg/kg i.v., 1 min): +1.2%
Changes (%) of basal values, aortic blood flow (aortic blood flow; 0.2 mg/kg i.v., 5 min): +0.3%
Changes (%) of basal values, aortic blood flow (aortic blood flow; 0.2 mg/kg i.v., 10 min): -0.1%
Changes (%) of basal values, aortic blood flow (aortic blood flow; 0.2 mg/kg i.v., 20 min): 0%
Changes (%) of basal values, aortic blood flow (aortic blood flow; 0.2 mg/kg i.v., 30 min): 0%
Changes (%) of basal values, aortic blood flow (aortic blood flow; 0.2 mg/kg i.v., 40 min): 0%
Changes (%) of basal values, aortic blood flow (aortic blood flow; 0.2 mg/kg i.v., imm.): +2.5%
Changes (%) of basal values, aortic blood flow (aortic blood flow; 0.6 mg/kg i.v., 1 min): +1.6%
Changes (%) of basal values, aortic blood flow (aortic blood flow; 0.6 mg/kg i.v., 5 min): +2.3%
Changes (%) of basal values, aortic blood flow (aortic blood flow; 0.6 mg/kg i.v., 10 min): 0%
Changes (%) of basal values, aortic blood flow (aortic blood flow; 0.6 mg/kg i.v., 20 min): -1.1%
Changes (%) of basal values, aortic blood flow (aortic blood flow; 0.6 mg/kg i.v., 30 min): -0.7%
Changes (%) of basal values, aortic blood flow (aortic blood flow; 0.6 mg/kg i.v., 40 min): 0%
Changes (%) of basal values, aortic blood flow (aortic blood flow; 0.6 mg/kg i.v., imm.): +4.8%
Changes (%) of basal values, aortic blood flow (aortic blood flow; 2.0 mg/kg i.v., 1 min): +4.3%
Changes (%) of basal values, aortic blood flow (aortic blood flow; 2.0 mg/kg i.v., 5 min): -1.2%
Changes (%) of basal values, aortic blood flow (aortic blood flow; 2.0 mg/kg i.v., 10 min): -2.1%
Changes (%) of basal values, aortic blood flow (aortic blood flow; 2.0 mg/kg i.v., 20 min): -1.8%
Changes (%) of basal values, aortic blood flow (aortic blood flow; 2.0 mg/kg i.v., 30 min): 0%
Changes (%) of basal values, aortic blood flow (aortic blood flow; 2.0 mg/kg i.v., 40 min): 0%
Changes (%) of basal values, aortic blood flow (aortic blood flow; 2.0 mg/kg i.v., imm.): +6.2%
Effects on aortic blood flow (in words) (aortic blood flow; i.v., anesthetized dogs): an increase in blood flow immediately after administration, followed by a decrease in blood flow
Changes(%) of basal values, coronary sinus out flow (coronary sinus out flow; 0.2 mg/kg i.v., 1 min): +4.9%
Changes(%) of basal values, coronary sinus out flow (coronary sinus out flow; 0.2 mg/kg i.v., 5 min): +0.7%
Changes(%) of basal values, coronary sinus out flow (coronary sinus out flow; 0.2 mg/kg i.v., 10 min): 0%
Changes(%) of basal values, coronary sinus out flow (coronary sinus out flow; 0.2 mg/kg i.v., 20 min): -0.3%
Changes(%) of basal values, coronary sinus out flow (coronary sinus out flow; 0.2 mg/kg i.v., 30 min): 0%
Changes(%) of basal values, coronary sinus out flow (coronary sinus out flow; 0.2 mg/kg i.v., 40 min): 0%
Changes(%) of basal values, coronary sinus out flow (coronary sinus out flow; 0.2 mg/kg i.v., imm.): +18.0%
Changes(%) of basal values, coronary sinus out flow (coronary sinus out flow; 0.6 mg/kg i.v., 1 min): +30.7%
Changes(%) of basal values, coronary sinus out flow (coronary sinus out flow; 0.6 mg/kg i.v., 5 min): +0.9%
Changes(%) of basal values, coronary sinus out flow (coronary sinus out flow; 0.6 mg/kg i.v., 10 min): -0.7%
Changes(%) of basal values, coronary sinus out flow (coronary sinus out flow; 0.6 mg/kg i.v., 20 min): -0.2%
Changes(%) of basal values, coronary sinus out flow (coronary sinus out flow; 0.6 mg/kg i.v., 30 min): 0%
Changes(%) of basal values, coronary sinus out flow (coronary sinus out flow; 0.6 mg/kg i.v., 40 min): 0%
Changes(%) of basal values, coronary sinus out flow (coronary sinus out flow; 0.6 mg/kg i.v., imm.): +39.5%
Changes(%) of basal values, coronary sinus out flow (coronary sinus out flow; 2.0 mg/kg i.v., 1 min): +47.4%
Changes(%) of basal values, coronary sinus out flow (coronary sinus out flow; 2.0 mg/kg i.v., 5 min): +8.2%
Changes(%) of basal values, coronary sinus out flow (coronary sinus out flow; 2.0 mg/kg i.v., 10 min): +5.9%
Changes(%) of basal values, coronary sinus out flow (coronary sinus out flow; 2.0 mg/kg i.v., 20 min): +3.2%
Changes(%) of basal values, coronary sinus out flow (coronary sinus out flow; 2.0 mg/kg i.v., 30 min): +1.5%
Changes(%) of basal values, coronary sinus out flow (coronary sinus out flow; 2.0 mg/kg i.v., 40 min): 0%
Changes(%) of basal values, coronary sinus out flow (coronary sinus out flow; 2.0 mg/kg i.v., imm.): +55.1%
Effects on coronary sinus out flow (in words) (coronary sinus out flow; i.v., anesthetized dogs): a marked increasing effect on coronary sinus out flow, which was proportioned to doses thereof and of long duration
Changes(%) of basal values, coronary sinus oxygen tension ([2]; 0.2 mg/kg i.v., 1 min): +11.3%
Changes(%) of basal values, coronary sinus oxygen tension ([2]; 0.2 mg/kg i.v., 5 min): +1.0%
Changes(%) of basal values, coronary sinus oxygen tension ([2]; 0.2 mg/kg i.v., 10 min): -2.0%
Changes(%) of basal values, coronary sinus oxygen tension ([2]; 0.2 mg/kg i.v., 20 min): -0.5%
Changes(%) of basal values, coronary sinus oxygen tension ([2]; 0.2 mg/kg i.v., 30 min): 0%
Changes(%) of basal values, coronary sinus oxygen tension ([2]; 0.2 mg/kg i.v., 40 min): 0%
Changes(%) of basal values, coronary sinus oxygen tension ([2]; 0.2 mg/kg i.v., imm.): +25.5%
Changes(%) of basal values, coronary sinus oxygen tension ([2]; 0.6 mg/kg i.v., 1 min): +46.4%
Changes(%) of basal values, coronary sinus oxygen tension ([2]; 0.6 mg/kg i.v., 5 min): +8.9%
Changes(%) of basal values, coronary sinus oxygen tension ([2]; 0.6 mg/kg i.v., 10 min): -3.2%
Changes(%) of basal values, coronary sinus oxygen tension ([2]; 0.6 mg/kg i.v., 20 min): -0.9%
Changes(%) of basal values, coronary sinus oxygen tension ([2]; 0.6 mg/kg i.v., 30 min): 0%
Changes(%) of basal values, coronary sinus oxygen tension ([2]; 0.6 mg/kg i.v., 40 min): 0%
Changes(%) of basal values, coronary sinus oxygen tension ([2]; 0.6 mg/kg i.v., imm.): +68.4%
Changes(%) of basal values, coronary sinus oxygen tension ([2]; 2.0 mg/kg i.v., 1 min): +70.9%
Changes(%) of basal values, coronary sinus oxygen tension ([2]; 2.0 mg/kg i.v., 5 min): +26.7%
Changes(%) of basal values, coronary sinus oxygen tension ([2]; 2.0 mg/kg i.v., 10 min): +8.0%
Changes(%) of basal values, coronary sinus oxygen tension ([2]; 2.0 mg/kg i.v., 20 min): +3.0%
Changes(%) of basal values, coronary sinus oxygen tension ([2]; 2.0 mg/kg i.v., 30 min): +0.8%
Changes(%) of basal values, coronary sinus oxygen tension ([2]; 2.0 mg/kg i.v., 40 min): 0%
Changes(%) of basal values, coronary sinus oxygen tension ([2]; 2.0 mg/kg i.v., imm.): +80.7%
Effects on coronary sinus oxygen tension (in words) ([2]; i.v., anesthetized dogs): a significant increase in coronary sinus oxygen tension, effect of which was of long duration
Changes(%) of basal values, heart rate (heart rate; 0.2 mg/kg i.v., 1 min): -0.9%
Changes(%) of basal values, heart rate (heart rate; 0.2 mg/kg i.v., 5 min): 0%
Changes(%) of basal values, heart rate (heart rate; 0.2 mg/kg i.v., 10 min): 0%
Changes(%) of basal values, heart rate (heart rate; 0.2 mg/kg i.v., 20 min): 0%
Changes(%) of basal values, heart rate (heart rate; 0.2 mg/kg i.v., 30 min): 0%
Changes(%) of basal values, heart rate (heart rate; 0.2 mg/kg i.v., 40 min): 0%
Changes(%) of basal values, heart rate (heart rate; 0.2 mg/kg i.v., imm.): -2.4%
Changes(%) of basal values, heart rate (heart rate; 0.6 mg/kg i.v., 1 min): +0.6%
Changes(%) of basal values, heart rate (heart rate; 0.6 mg/kg i.v., 5 min): -0.8%
Changes(%) of basal values, heart rate (heart rate; 0.6 mg/kg i.v., 10 min): -0.2%
Changes(%) of basal values, heart rate (heart rate; 0.6 mg/kg i.v., 20 min): 0%
Changes(%) of basal values, heart rate (heart rate; 0.6 mg/kg i.v., 30 min): -0.5%
Changes(%) of basal values, heart rate (heart rate; 0.6 mg/kg i.v., 40 min): 0%
Changes(%) of basal values, heart rate (heart rate; 0.6 mg/kg i.v., imm.): -13.1%
Changes(%) of basal values, heart rate (heart rate; 2.0 mg/kg i.v., 1 min): -2.4%
Changes(%) of basal values, heart rate (heart rate; 2.0 mg/kg i.v., 5 min): -1.5%
Changes(%) of basal values, heart rate (heart rate; 2.0 mg/kg i.v., 10 min): -0.7%
Changes(%) of basal values, heart rate (heart rate; 2.0 mg/kg i.v., 20 min): 0%
Changes(%) of basal values, heart rate (heart rate; 2.0 mg/kg i.v., 30 min): 0%
Changes(%) of basal values, heart rate (heart rate; 2.0 mg/kg i.v., 40 min): 0%
Changes(%) of basal values, heart rate (heart rate; 2.0 mg/kg i.v., imm.): -25.3%
Effects on heart rate (in words) (heart rate; i.v., anesthetized dogs): a slight negative chronotropic effect
